Key:
Type in all cases: cell-based
E. coli DH5α = assay: Antibacterial activity: MIC and growth curve against E. coli DH5α in 96-well plate; details: minimal inhibitory concentration against E. coli DH5α; 96-well plate, 5×10^5 CFU/mL, 37° C., judged after 8 h
How it was run: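 Log-phase bacteria (OD600 ~0.5) resuspended in LB at 5×10^5 CFU/mL, exposed to recombinant protein at 50, 25, 12.5 μg/mL final in triplicate, 37 °C shaking at 175 rpm. OD600 read every 30 min; MIC is lowest concentration showing no growth.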

E. coli BL21 = assay: MIC against Gram-negative bacteria: E. coli BL21; details: 5×10^5 CFU/mL
How it was run: (§1)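 Read-out is absence of bacterial growth, with MIC set at the lowest recombinant protein concentration achieving it. Bacteria, pre-grown in LB to McFarland 0.5 and resuspended, were exposed at 5×10^5 CFU/mL to two-fold diluted human EGF domain proteins in triplicate at 37° C, 175 rpm.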

Pseudomonas aeruginosa = assay: MIC against Gram-negative bacteria: Pseudomonas aeruginosa; details: 5×10^5 CFU/mL
How it was run: as §1

Klebsiella pneumonia = assay: MIC against Gram-negative bacteria: Klebsiella pneumonia; details: 5×10^5 CFU/mL
How it was run: as §1

Enterobacter cloacae = assay: MIC against Gram-negative bacteria: Enterobacter cloacae; details: 5×10^5 CFU/mL
How it was run: as §1

Aeromonas hydrophila = assay: MIC against Gram-negative bacteria: Aeromonas hydrophila; details: 5×10^5 CFU/mL
How it was run: as §1

Citrobacter diversus = assay: MIC against Gram-negative bacteria: Citrobacter diversus; details: 5×10^5 CFU/mL
How it was run: as §1

Moraxella catarrhalis = assay: MIC against Gram-negative bacteria: Moraxella catarrhalis; details: 5×10^5 CFU/mL
How it was run: as §1

Proteus mirabilis = assay: MIC against Gram-negative bacteria: Proteus mirabilis; details: 5×10^5 CFU/mL
How it was run: as §1

Proteus vulgaris = assay: MIC against Gram-negative bacteria: Proteus vulgaris; details: 5×10^5 CFU/mL
How it was run: as §1

Serratia marcescens = assay: MIC against Gram-negative bacteria: Serratia marcescens; details: 5×10^5 CFU/mL
How it was run: as §1

[1] = E. coli BL21, 96-well plate, 37° C., 10 h
[2] = Pseudomonas aeruginosa, 96-well plate, 37° C., 10 h
[3] = Klebsiella pneumonia, 96-well plate, 37° C., 10 h
[4] = Enterobacter cloacae, 96-well plate, 37° C., 10 h
[5] = Aeromonas hydrophila, 96-well plate, 37° C., 10 h
[6] = Citrobacter diversus, 96-well plate, 37° C., 10 h
[7] = Moraxella catarrhalis, 96-well plate, 37° C., 10 h
[8] = Proteus mirabilis, 96-well plate, 37° C., 10 h
[9] = Proteus vulgaris, 96-well plate, 37° C., 10 h
[10] = Serratia marcescens, 96-well plate, 37° C., 10 h
[11] = E. coli BL21, 10 h cultivation at 37° C.
[12] = P. aeruginosa, 10 h cultivation at 37° C.
[13] = K. pneumonia, 10 h cultivation at 37° C.
[14] = E. cloacae, 10 h cultivation at 37° C.
[15] = A. hydrophila, 10 h cultivation at 37° C.
[16] = C. diversus, 10 h cultivation at 37° C.
[17] = M. catarrhalis, 10 h cultivation at 37° C.
[18] = P. mirabilis, 10 h cultivation at 37° C.
[19] = P. vulgaris, 10 h cultivation at 37° C.
[20] = S. marcescens, 10 h cultivation at 37° C.

“PRT1326 (AINACEISNGGCSAKADCKRTTPGRRVCTCKAGYTGDGIVCL; listed as Homo sapiens)” was tested. Which MIC (E. coli DH5α) did it give?
The MIC was 50 µg/mL.

What about the “MIC against E. coli BL21” value (E. coli BL21; [1]) of the same substance?
The value was 12.5 µg/mL.

What about the “MIC against P. aeruginosa” value (Pseudomonas aeruginosa; [2]) of the same substance?
Its value is 50 µg/mL.

And the “MIC against K. pneumonia” value (Klebsiella pneumonia; [3])?
The value was 12.5 µg/mL.

And the “MIC against E. cloacae” value (Enterobacter cloacae; [4])?
The value was 50 µg/mL.

And the “MIC against A. hydrophila” value (Aeromonas hydrophila; [5])?
The value was 12.5 µg/mL.

And the “MIC against C. diversus” value (Citrobacter diversus; [6])?
The value was 50 µg/mL.

What about the “MIC against M. catarrhalis” value (Moraxella catarrhalis; [7]) of the same substance?
Its value is 25 µg/mL.

What about the “MIC against P. mirabilis” value (Proteus mirabilis; [8]) of the same substance?
Its value is 12.5 µg/mL.

What about the “MIC against P. vulgaris” value (Proteus vulgaris; [9]) of the same substance?
Its value is 25 µg/mL.

And the “MIC against S. marcescens” value (Serratia marcescens; [10])?
The value was 50 µg/mL.

“PRT481 (EITACSSSPCFHDGTCVLDKAGSYKCACLAGYTGQRCE; listed as Homo sapiens)” was tested. Which MIC (E. coli DH5α) did it give?
The MIC was 25 µg/mL.

And the “MIC against E. coli BL21” value (E. coli BL21; 96-well plate, 37° C., 10 h)?
Its value is 12.5 µg/mL.

And the “MIC against P. aeruginosa” value (Pseudomonas aeruginosa; 96-well plate, 37° C., 10 h)?
Its value is 25 µg/mL.

What about the “MIC against K. pneumonia” value (Klebsiella pneumonia; 96-well plate, 37° C., 10 h) of the same substance?
The value was 50 µg/mL.

What about the “MIC against E. cloacae” value (Enterobacter cloacae; 96-well plate, 37° C., 10 h) of the same substance?
The value was 12.5 µg/mL.

And the “MIC against A. hydrophila” value (Aeromonas hydrophila; 96-well plate, 37° C., 10 h)?
The value was 50 µg/mL.

And the “MIC against C. diversus” value (Citrobacter diversus; 96-well plate, 37° C., 10 h)?
Its value is 12.5 µg/mL.

What about the “MIC against M. catarrhalis” value (Moraxella catarrhalis; 96-well plate, 37° C., 10 h) of the same substance?
The value was 50 µg/mL.

What about the “MIC against P. mirabilis” value (Proteus mirabilis; 96-well plate, 37° C., 10 h) of the same substance?
Its value is 12.5 µg/mL.

What about the “MIC against P. vulgaris” value (Proteus vulgaris; 96-well plate, 37° C., 10 h) of the same substance?
The value was 50 µg/mL.

And the “MIC against S. marcescens” value (Serratia marcescens; 96-well plate, 37° C., 10 h)?
The value was 12.5 µg/mL.

With “PRT784 (FGKNCAGICTCTNNGTCNPIDRSCQCYPGWIGSDCS; listed as Homo sapiens)” as the substance, how does the MIC (E. coli DH5α) read?
The MIC was 50 µg/mL.

What about the “MIC (μg/mL) E. coli BL21” value (E. coli BL21; [11]) of the same substance?
The value was 25 µg/mL.

And the “MIC (μg/mL) P. aeruginosa” value (Pseudomonas aeruginosa; [12])?
The value was 12.5 µg/mL.

And the “MIC (μg/mL) K. pneumonia” value (Klebsiella pneumonia; [13])?
The value was 50 µg/mL.

What about the “MIC (μg/mL) E. cloacae” value (Enterobacter cloacae; [14]) of the same substance?
Its value is 12.5 µg/mL.

What about the “MIC (μg/mL) A. hydrophila” value (Aeromonas hydrophila; [15]) of the same substance?
The value was 50 µg/mL.

And the “MIC (μg/mL) C. diversus” value (Citrobacter diversus; [16])?
Its value is 12.5 µg/mL.

What about the “MIC (μg/mL) M. catarrhalis” value (Moraxella catarrhalis; [17]) of the same substance?
Its value is 50 µg/mL.

What about the “MIC (μg/mL) P. mirabilis” value (Proteus mirabilis; [18]) of the same substance?
The value was 12.5 µg/mL.

What about the “MIC (μg/mL) P. vulgaris” value (Proteus vulgaris; [19]) of the same substance?
Its value is 50 µg/mL.

And the “MIC (μg/mL) S. marcescens” value (Serratia marcescens; [20])?
The value was 12.5 µg/mL.

How did the MIC (E. coli DH5α) turn out when “PRT96 (AQRFCPDGSPSECHEHADCVLERDGSRSCVCAVGWAGNGILCG; listed as Homo sapiens)” was run?
Its MIC is 12.5 µg/mL.

And the “MIC (μg/mL) E. coli BL21” value (E. coli BL21; [1])?
The value was 25 µg/mL.

And the “MIC (μg/mL) P. aeruginosa” value (Pseudomonas aeruginosa; [2])?
Its value is 12.5 µg/mL.

What about the “MIC (μg/mL) K. pneumonia” value (Klebsiella pneumonia; [3]) of the same substance?
Its value is 12.5 µg/mL.

And the “MIC (μg/mL) E. cloacae” value (Enterobacter cloacae; [4])?
Its value is 12.5 µg/mL.

And the “MIC (μg/mL) A. hydrophila” value (Aeromonas hydrophila; [5])?
Its value is 12.5 µg/mL.

What about the “MIC (μg/mL) C. diversus” value (Citrobacter diversus; [6]) of the same substance?
Its value is 12.5 µg/mL.

And the “MIC (μg/mL) M. catarrhalis” value (Moraxella catarrhalis; [7])?
Its value is 12.5 µg/mL.

And the “MIC (μg/mL) P. mirabilis” value (Proteus mirabilis; [8])?
Its value is 12.5 µg/mL.

And the “MIC (μg/mL) P. vulgaris” value (Proteus vulgaris; [9])?
The value was 25 µg/mL.

What about the “MIC (μg/mL) S. marcescens” value (Serratia marcescens; [10]) of the same substance?
The value was 12.5 µg/mL.

How did the MIC (E. coli DH5α) turn out when “PRT413 (DVNECITGSHSCRLGESCINTVGSFRCQRDSSCGTGYELTEDNSCK; listed as Homo sapiens)” was run?
Its MIC is 12.5 µg/mL.

And the MIC (E. coli BL21; [11])?
The MIC was 12.5 µg/mL.

And the MIC (Pseudomonas aeruginosa; [12])?
Its MIC is 12.5 µg/mL.

And the MIC (Klebsiella pneumonia; [13])?
The MIC was 50 µg/mL.

And the MIC (Enterobacter cloacae; [14])?
The MIC was 12.5 µg/mL.

What about the MIC (Aeromonas hydrophila; [15]) of the same substance?
The MIC was 50 µg/mL.

What about the MIC (Citrobacter diversus; [16]) of the same substance?
The MIC was 12.5 µg/mL.

And the MIC (Moraxella catarrhalis; [17])?
Its MIC is 50 µg/mL.

And the MIC (Proteus mirabilis; [18])?
Its MIC is 12.5 µg/mL.

What about the MIC (Proteus vulgaris; [19]) of the same substance?
The MIC was 12.5 µg/mL.

What about the MIC (Serratia marcescens; [20]) of the same substance?
Its MIC is 12.5 µg/mL.

With “PRT813 (FGVNCSSSCSCGGAPCHGVTGQCRCPPGRTGEDCE; listed as Homo sapiens)” as the substance, how does the MIC (E. coli DH5α) read?
The MIC was 50 µg/mL.

What about the “MIC (μg/mL) E. coli BL21” value (E. coli BL21; [11]) of the same substance?
Its value is 50 µg/mL.

What about the “MIC (μg/mL) P. aeruginosa” value (Pseudomonas aeruginosa; [12]) of the same substance?
The value was 50 µg/mL.

And the “MIC (μg/mL) K. pneumonia” value (Klebsiella pneumonia; [13])?
Its value is 50 µg/mL.

What about the “MIC (μg/mL) E. cloacae” value (Enterobacter cloacae; [14]) of the same substance?
Its value is 25 µg/mL.

And the “MIC (μg/mL) A. hydrophila” value (Aeromonas hydrophila; [15])?
The value was 50 µg/mL.

And the “MIC (μg/mL) C. diversus” value (Citrobacter diversus; [16])?
The value was 25 µg/mL.

And the “MIC (μg/mL) M. catarrhalis” value (Moraxella catarrhalis; [17])?
The value was 25 µg/mL.

And the “MIC (μg/mL) P. mirabilis” value (Proteus mirabilis; [18])?
The value was 25 µg/mL.

And the “MIC (μg/mL) P. vulgaris” value (Proteus vulgaris; [19])?
The value was 50 µg/mL.

And the “MIC (μg/mL) S. marcescens” value (Serratia marcescens; [20])?
Its value is 12.5 µg/mL.

Which results are given for “PRT580 (CDCDPMGSQDGGRCDSHDDPALGLVSGQCRCKEHVVGTRCQQCRDGFFGLSISDRLGCRR; listed as Homo sapiens)”?
MIC (E. coli DH5α): 12.5 µg/mL; MIC against E. coli BL21 (E. coli BL21; 96-well plate, 37° C., 10 h): 25 µg/mL; MIC against P. aeruginosa (Pseudomonas aeruginosa; 96-well plate, 37° C., 10 h): 12.5 µg/mL; MIC against K. pneumonia (Klebsiella pneumonia; 96-well plate, 37° C., 10 h): 25 µg/mL; MIC against E. cloacae (Enterobacter cloacae; 96-well plate, 37° C., 10 h): 12.5 µg/mL; MIC against A. hydrophila (Aeromonas hydrophila; 96-well plate, 37° C., 10 h): 25 µg/mL; MIC against C. diversus (Citrobacter diversus; 96-well plate, 37° C., 10 h): 12.5 µg/mL; MIC against M. catarrhalis (Moraxella catarrhalis; 96-well plate, 37° C., 10 h): 50 µg/mL; MIC against P. mirabilis (Proteus mirabilis; 96-well plate, 37° C., 10 h): 12.5 µg/mL; MIC against P. vulgaris (Proteus vulgaris; 96-well plate, 37° C., 10 h): 50 µg/mL; MIC against S. marcescens (Serratia marcescens; 96-well plate, 37° C., 10 h): 12.5 µg/mL
